Test results reported in PubChem BioAssay (NCI).
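GI50: concentration for 50% inhibition of growth. TGI is the concentration that stops growth completely.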

Columns and labels:
Assay in all cases: NCI anticancer screen, dose series, 384-well format
MOLT-4 leukemia = system: MOLT-4 leukemia
CCRF-CEM leukemia = system: CCRF-CEM leukemia
HCT-15 colon = system: HCT-15 colon
OVCAR-3 ovarian = system: OVCAR-3 ovarian
HOP-62 NSCLC = system: HOP-62 NSCLC
MDA-MB-231 breast = system: MDA-MB-231 breast
HCC-2998 colon = system: HCC-2998 colon
T-47D breast = system: T-47D breast
A549 NSCLC = system: A549 NSCLC
A498 renal = system: A498 renal
SN12C renal = system: SN12C renal
OVCAR-8 ovarian = system: OVCAR-8 ovarian
HCT-116 colon = system: HCT-116 colon
SF-539 CNS = system: SF-539 CNS
786-0 renal = system: 786-0 renal
HOP-92 NSCLC = system: HOP-92 NSCLC
MCF7 breast = system: MCF7 breast
SNB-75 CNS = system: SNB-75 CNS
HL-60(TB) leukemia = system: HL-60(TB) leukemia
RPMI-8226 leukemia = system: RPMI-8226 leukemia
SK-OV-3 ovarian = system: SK-OV-3 ovarian
UACC-62 melanoma = system: UACC-62 melanoma
MDA-MB-468 breast = system: MDA-MB-468 breast
NCI-H23 lung = system: NCI-H23 lung
DU-145 prostate = system: DU-145 prostate
NCI-H460 NSCLC = system: NCI-H460 NSCLC
COLO 205 colon = system: COLO 205 colon
SK-MEL-2 melanoma = system: SK-MEL-2 melanoma
SW-620 colon = system: SW-620 colon
SR leukemia = system: SR leukemia
PC-3 prostate = system: PC-3 prostate
SNB-19 CNS = system: SNB-19 CNS
EKVX NSCLC = system: EKVX NSCLC
CAKI-1 renal = system: CAKI-1 renal
K-562 leukemia = system: K-562 leukemia
KM12 colon = system: KM12 colon
SK-MEL-28 melanoma = system: SK-MEL-28 melanoma
TK-10 renal = system: TK-10 renal
HT29 colon = system: HT29 colon
UACC-257 melanoma = system: UACC-257 melanoma
NCI-H226 lung = system: NCI-H226 lung
MALME-3M melanoma = system: MALME-3M melanoma
OVCAR-5 ovarian = system: OVCAR-5 ovarian
SF-268 CNS = system: SF-268 CNS
NCI-H322M lung = system: NCI-H322M lung
NCI-H522 lung = system: NCI-H522 lung
SK-MEL-5 melanoma = system: SK-MEL-5 melanoma

**Q.** With `COC(=O)c1ccc2c(C(=Nc3ccc(N(C)C(=O)CN4CCN(C)CC4)cc3)c3ccccc3)c(O)[nH]c2c1` as the molecule, how does the GI50 (MOLT-4 leukemia) read?
**A.** 0.73 µM

**Q.** And the TGI (MOLT-4 leukemia)?
**A.** 2.09 µM

**Q.** And the GI50 (CCRF-CEM leukemia)?
**A.** 1.71 µM

**Q.** What about the TGI (CCRF-CEM leukemia) of the same molecule?
**A.** 3.09 µM

**Q.** What about the GI50 (HCT-15 colon) of the same molecule?
**A.** 1.76 µM

**Q.** And the TGI (HCT-15 colon)?
**A.** 3.33 µM

**Q.** And the GI50 (OVCAR-3 ovarian)?
**A.** 1.78 µM

**Q.** What about the TGI (OVCAR-3 ovarian) of the same molecule?
**A.** 3.26 µM

**Q.** And the GI50 (HOP-62 NSCLC)?
**A.** 1.61 µM

**Q.** And the TGI (HOP-62 NSCLC)?
**A.** 3.24 µM

**Q.** What about the GI50 (MDA-MB-231 breast) of the same molecule?
**A.** 1.72 µM

**Q.** What about the TGI (MDA-MB-231 breast) of the same molecule?
**A.** 3.13 µM

**Q.** What about the GI50 (HCC-2998 colon) of the same molecule?
**A.** 1.58 µM

**Q.** What about the TGI (HCC-2998 colon) of the same molecule?
**A.** 2.96 µM

**Q.** What about the GI50 (T-47D breast) of the same molecule?
**A.** 1.37 µM

**Q.** And the TGI (T-47D breast)?
**A.** 2.72 µM

**Q.** And the GI50 (A549 NSCLC)?
**A.** 1.74 µM

**Q.** What about the TGI (A549 NSCLC) of the same molecule?
**A.** 3.32 µM

**Q.** What about the GI50 (A498 renal) of the same molecule?
**A.** 1.64 µM

**Q.** And the TGI (A498 renal)?
**A.** 3.07 µM

**Q.** And the GI50 (SN12C renal)?
**A.** 1.11 µM

**Q.** What about the TGI (SN12C renal) of the same molecule?
**A.** 2.35 µM

**Q.** What about the GI50 (OVCAR-8 ovarian) of the same molecule?
**A.** 1.58 µM

**Q.** And the TGI (OVCAR-8 ovarian)?
**A.** 2.97 µM

**Q.** And the GI50 (HCT-116 colon)?
**A.** 1.4 µM

**Q.** And the TGI (HCT-116 colon)?
**A.** 2.72 µM

**Q.** What about the GI50 (SF-539 CNS) of the same molecule?
**A.** 0.545 µM

**Q.** What about the TGI (SF-539 CNS) of the same molecule?
**A.** 1.91 µM

**Q.** And the GI50 ([…]-0 renal)?
**A.** 1.4 µM

**Q.** What about the TGI (786-0 renal) of the same molecule?
**A.** 2.79 µM

**Q.** And the GI50 (HOP-92 NSCLC)?
**A.** 0.95 µM

**Q.** What about the TGI (HOP-92 NSCLC) of the same molecule?
**A.** 2.6 µM

**Q.** And the GI50 (MCF7 breast)?
**A.** 1.32 µM

**Q.** And the TGI (MCF7 breast)?
**A.** 2.76 µM

**Q.** And the GI50 (SNB-75 CNS)?
**A.** 0.468 µM

**Q.** And the TGI (SNB-75 CNS)?
**A.** 1.51 µM

**Q.** What about the GI50 (HL-60(TB) leukemia) of the same molecule?
**A.** 2.04 µM

**Q.** And the TGI (HL-60(TB) leukemia)?
**A.** 3.47 µM

**Q.** And the GI50 (RPMI-8226 leukemia)?
**A.** 1.34 µM

**Q.** And the TGI (RPMI-8226 leukemia)?
**A.** 2.62 µM

**Q.** What about the GI50 (SK-OV-3 ovarian) of the same molecule?
**A.** 1.34 µM

**Q.** What about the TGI (SK-OV-3 ovarian) of the same molecule?
**A.** 2.78 µM

**Q.** What about the GI50 (UACC-62 melanoma) of the same molecule?
**A.** 1.9 µM

**Q.** And the TGI (UACC-62 melanoma)?
**A.** 3.32 µM

**Q.** And the GI50 (MDA-MB-468 breast)?
**A.** 1.67 µM

**Q.** And the TGI (MDA-MB-468 breast)?
**A.** 3.08 µM

**Q.** And the GI50 (NCI-H23 lung)?
**A.** 1.79 µM

**Q.** What about the TGI (NCI-H23 lung) of the same molecule?
**A.** 5.17 µM

**Q.** What about the GI50 (DU-145 prostate) of the same molecule?
**A.** 1.79 µM

**Q.** And the TGI (DU-145 prostate)?
**A.** 3.34 µM

**Q.** And the GI50 (NCI-H460 NSCLC)?
**A.** 1.87 µM

**Q.** And the TGI (NCI-H460 NSCLC)?
**A.** 3.3 µM

**Q.** And the GI50 (COLO 205 colon)?
**A.** 1.75 µM

**Q.** What about the TGI (COLO 205 colon) of the same molecule?
**A.** 3.14 µM

**Q.** And the GI50 (SK-MEL-2 melanoma)?
**A.** 1.72 µM

**Q.** And the TGI (SK-MEL-2 melanoma)?
**A.** 3.12 µM

**Q.** And the GI50 (SW-620 colon)?
**A.** 1.82 µM

**Q.** And the TGI (SW-620 colon)?
**A.** 3.25 µM

**Q.** And the GI50 (SR leukemia)?
**A.** 0.734 µM

**Q.** What about the TGI (SR leukemia) of the same molecule?
**A.** 2.02 µM

**Q.** What about the GI50 (PC-3 prostate) of the same molecule?
**A.** 2.66 µM

**Q.** And the TGI (PC-3 prostate)?
**A.** 10.3 µM

**Q.** What about the GI50 (SNB-19 CNS) of the same molecule?
**A.** 1.44 µM

**Q.** And the TGI (SNB-19 CNS)?
**A.** 4.32 µM

**Q.** What about the GI50 (EKVX NSCLC) of the same molecule?
**A.** 2 µM

**Q.** What about the TGI (EKVX NSCLC) of the same molecule?
**A.** 3.65 µM

**Q.** What about the GI50 (CAKI-1 renal) of the same molecule?
**A.** 1.37 µM

**Q.** And the TGI (CAKI-1 renal)?
**A.** 2.81 µM

**Q.** What about the GI50 (K-562 leukemia) of the same molecule?
**A.** 0.137 µM

**Q.** And the TGI (K-562 leukemia)?
**A.** 0.286 µM

**Q.** And the GI50 (KM12 colon)?
**A.** 0.0475 µM

**Q.** And the TGI (KM12 colon)?
**A.** 1.33 µM

**Q.** What about the GI50 (SK-MEL-28 melanoma) of the same molecule?
**A.** 1.69 µM

**Q.** What about the TGI (SK-MEL-28 melanoma) of the same molecule?
**A.** 3.08 µM

**Q.** What about the GI50 (TK-10 renal) of the same molecule?
**A.** 1.83 µM

**Q.** What about the TGI (TK-10 renal) of the same molecule?
**A.** 3.82 µM

**Q.** What about the GI50 (HT29 colon) of the same molecule?
**A.** 1.23 µM

**Q.** And the TGI (HT29 colon)?
**A.** 2.51 µM

**Q.** And the GI50 (UACC-257 melanoma)?
**A.** 1.33 µM

**Q.** And the TGI (UACC-257 melanoma)?
**A.** 2.61 µM

**Q.** And the GI50 (NCI-H226 lung)?
**A.** 0.812 µM

**Q.** What about the TGI (NCI-H226 lung) of the same molecule?
**A.** 2.19 µM

**Q.** And the GI50 (MALME-3M melanoma)?
**A.** 1.46 µM

**Q.** And the TGI (MALME-3M melanoma)?
**A.** 2.78 µM

**Q.** What about the GI50 (OVCAR-5 ovarian) of the same molecule?
**A.** 1.3 µM

**Q.** And the TGI (OVCAR-5 ovarian)?
**A.** 2.69 µM

**Q.** What about the GI50 (SF-268 CNS) of the same molecule?
**A.** 1.56 µM

**Q.** And the TGI (SF-268 CNS)?
**A.** 3.1 µM

**Q.** What about the GI50 (NCI-H322M lung) of the same molecule?
**A.** 1.41 µM

**Q.** And the TGI (NCI-H322M lung)?
**A.** 3.36 µM

**Q.** And the GI50 (NCI-H522 lung)?
**A.** 0.75 µM

**Q.** What about the TGI (NCI-H522 lung) of the same molecule?
**A.** 2.04 µM

**Q.** What about the GI50 (SK-MEL-5 melanoma) of the same molecule?
**A.** 2.19 µM

**Q.** What about the TGI (SK-MEL-5 melanoma) of the same molecule?
**A.** 3.64 µM
